Experiments:
[1] = tested on: Rimantadine-resistant M2 proton channel; set-up: method as in PMID 27187859; conditions: cited from earlier work
A. niger [2] = assay: Minimum inhibitory concentration (CLSI); type: cell-based, Aspergillus niger
C. albicans [3] = assay: Minimum inhibitory concentration (CLSI); type: cell-based, Candida albicans
E. coli = assay: Minimum inhibitory concentration (CLSI); type: cell-based, Escherichia coli
A. niger [4] = assay: Agar-diffusion assay (zone of inhibition); conditions: Aspergillus niger, 24 h
Description: (§1) Initial screening of antimicrobial activity was performed by using agar-diffusion assay against a number of microorganisms: fungi (Aspergillus niger INA 00760), yeast (Candida albicans CBS 8836), gram-positive bacteria (Bacillus subtilis ATCC 6633, Staphylococcus aureus ATCC 25923) and gram-negative bacteria (Escherichia coli ATCC 25922). For the bacterial strains, the agar-diffusion method on the Mueller–Hinton medium was performed using direct colony suspension, equivalent to a 0.5 McFarland standard as inoculate. For the fungal test-strains, the Sabouraud medium was used with 0.2% glucose, inoculated with direct colony suspension (10^6 CFU/100 mL). The tested compounds were applied on Petri dishes on sterile paper disks (6 mm); 100 µg/disk inhibition zones were measured after 24 h incubation at 37 °C. As a positive control, standard antibiotic disks containing 30 µg vancomycin (for B. subtilis), 10 µg gentamicin (for E. coli), and 40 µg fluconazole (for A. niger and C. albicans) were used.

C. albicans [5] = assay: Agar-diffusion assay (zone of inhibition); conditions: Candida albicans, CBS8836, 24 h
Description: as §1

St. aureus [6] = assay: Minimum inhibitory concentration (CLSI); type: cell-based, Staphylococcus aureus; conditions: ATCC 29213 strain used for MIC
Description: Minimum inhibitory concentrations (MIC) were determined for the selected active strains according to the Performance Standards for Antimicrobial Susceptibility Testing (CLSI). The Staphylococcus aureus ATCC 29213 strain was used for MIC measurements. Amphotericin B, clotrimazole, vancomycin and ampicillin were used as positive control.

B. subtilis [7] = assay: Agar-diffusion assay (zone of inhibition); conditions: Bacillus subtilis, ATCC6633, 24 h
Description: as §1

HCT-116 = assay: MTT assay cytotoxicity; type: cell-based; conditions: Homo sapiens, HCT-116 (colon cancer), 72 h
WI38 = assay: MTT assay cytotoxicity; type: cell-based; conditions: Homo sapiens, WI-38, WI38 (fibroblasts, normal), 72 h
B. subtilis [8] = assay: Minimum inhibitory concentration (CLSI); type: cell-based, Bacillus subtilis
MCF-7 = assay: MTT assay cytotoxicity; type: cell-based; conditions: Homo sapiens, MCF7, MCF-7 (breast cancer), 72 h
A-549 = assay: MTT assay cytotoxicity; type: cell-based; conditions: Homo sapiens, A549, A-549 (lung cancer), 72 h
[9] = tested on: cancer or normal cell lines; assay: MTT assay cytotoxicity, summary over the cell line panel; conditions: for IC50: read-out: IC50 against cancer cell lines (range over compounds and lines); for toxicity against cancer or normal cell lines: either cancer or normal cell lines
St. aureus [10] = assay: Agar-diffusion assay (zone of inhibition); conditions: Staphylococcus aureus, ATCC25923, 24 h
Description: as §1

in vitro = conditions: dog
Hek293t = assay: MTT assay cytotoxicity; type: cell-based; conditions: Homo sapiens, HEK-293T, Hek293t (embryonic kidney, normal), 72 h

Row | Structure (SMILES) | IC50 (HCT-116) | IC50 (WI38) | IC50 (MCF-7) | melting point | IC50 (A-549) | also measured
1 | CC1CCC2(CC1)SC(N)=NC2(C)C (stereo not drawn) [A, spirothiazamenthane] |  |  |  |  |  | activity against the Rimantadine-resistant M2 proton channel [1]: inactive
2 | C[C@@H]1[C@H](O)[C@@H](C)/C=C/C=C/C=C/C=C/C=C/C=C/C=C/[C@H](O[C@@H]2O[C@H](C)[C@@H](O)[C@H](N)[C@@H]2O)C[C@@H]2O[C@](O)(C[C@@H](O)C[C@@H](O)[C@H](O)CC[C@@H](O)C[C@@H](O)CC(=O)O[C@H]1C)C[C@H](O)[C@H]2C(=O)O [Amphotericin B, reference compound] |  |  |  |  |  | MIK (A. niger [2]): 0.04 to 1.5 µg/mL; MIK (C. albicans [3]): 2 µg/mL
3 | CC1(C)S[C@@H]2[C@H](NC(=O)[C@H](N)c3ccccc3)C(=O)N2[C@H]1C(=O)O [Ampicillin, reference compound] |  |  |  |  |  | MIK (E. coli): 2 to 8 µg/mL
4 | Clc1ccccc1C(c1ccccc1)(c1ccccc1)n1ccnc1 [Clotrimazole, reference compound] |  |  |  |  |  | MIK (C. albicans [3]): 4 µg/mL
5 | O=[N+]([O-])C1=NOC2(CCCCCCC2)C1 [Compound 1, 3-Nitro-1-oxa-2-azaspiro[4.7]dodec-2-ene] | 20.8 ± 5 µM | 42.2 ± 13 µM | 58.8 ± 5 µM | 55 to 57 °C | 57.1 ± 7 µM | zone of inhibition at 100 µg/disc (A. niger [4]): 15 mm; zone of inhibition at 100 µg/disc (C. albicans [5]): 24 mm; MIK (St. aureus [6]): 32 µg/mL; zone of inhibition at 100 µg/disc (B. subtilis [7]): 12 mm; MIK (B. subtilis [8]): 32 µg/mL; MIK (E. coli): > 256 µg/mL; MIK (A. niger [2]): 8 µg/mL; MIK (C. albicans [3]): 8 µg/mL; IC50 [9]: 17.7 to 58.8 µM; zone of inhibition at 100 µg/disc (St. aureus [10]): 15 mm
6 | O=[N+]([O-])C1=NOC2CCCCCCC12 (stereo not drawn) [Compound 2, 3-Nitro-3a,4,5,6,7,8,9,9a-octahydrocycloocta[d]isoxazole] | 17.7 ± 5 µM | 27.4 ± 4 µM | 35.4 ± 4.5 µM | 52 to 53 °C | 40.4 ± 2.5 µM | zone of inhibition at 100 µg/disc (A. niger [4]): 15 mm; zone of inhibition at 100 µg/disc (C. albicans [5]): 19 mm; MIK (St. aureus [6]): 8 to 16 µg/mL; zone of inhibition at 100 µg/disc (B. subtilis [7]): 16 mm; MIK (B. subtilis [8]): 32 µg/mL; MIK (E. coli): > 256 µg/mL; MIK (A. niger [2]): 16 µg/mL; MIK (C. albicans [3]): 32 µg/mL; IC50 [9]: 17.7 to 58.8 µM; zone of inhibition at 100 µg/disc (St. aureus [10]): 25 mm
7 | NC1=NOC2(CCCCCCC2)C1 [Compound 3, 1-Oxa-2-azaspiro[4.7]dodec-2-en-3-amine] | > 500 µM | > 150 µM | > 150 µM |  | > 150 µM | CC50 (in vitro): > 550 µM; toxicity against cancer or normal cell lines [9]: not toxic
8 | NC1=NOC2CCCCCCC12 (stereo not drawn) [Compound 4, 3a,4,5,6,7,8,9,9a-Octahydrocycloocta[d]isoxazol-3-amine] | > 500 µM | > 150 µM | > 150 µM |  | > 150 µM | CC50 (in vitro): > 1790 µM; toxicity against cancer or normal cell lines [9]: not toxic
9 | CS(=O)(=O)NC1=NOC2(CCCCCCC2)C1 [Compound 5a, N-(1-Oxa-2-azaspiro[4.7]dodec-2-en-3-yl)methanesulfonamide] |  |  |  | 110 to 111 °C |  | 
10 | O=S(=O)(Cc1ccccc1)NC1=NOC2(CCCCCCC2)C1 [Compound 5b, N-(1-Oxa-2-azaspiro[4.7]dodec-2-en-3-yl)-1-phenylmethanesulfonamide] | > 200 µM | > 500 µM | 138 ± 25 µM | 68 to 70 °C |  | 
11 | O=S(=O)(NC1=NOC2(CCCCCCC2)C1)c1ccccc1 [Compound 5c, N-(1-Oxa-2-azaspiro[4.7]dodec-2-en-3-yl)benzenesulfonamide] | 63 ± 18 µM | 113 µM | 116 ± 30 µM | 156 to 157 °C | 163 µM | 
12 | Cc1ccc(S(=O)(=O)NC2=NOC3(CCCCCCC3)C2)cc1 [Compound 5d, 4-Methyl-N-(1-oxa-2-azaspiro[4.7]dodec-2-en-3-yl)benzenesulfonamide] |  | 54.6 ± 7 µM | 94 ± 30 µM | 122 to 124 °C | 143 ± 50 µM | 
13 | Cc1cc(C)c(S(=O)(=O)NC2=NOC3(CCCCCCC3)C2)c(C)c1 [Compound 5e, 2,4,6-Trimethyl-N-(1-oxa-2-azaspiro[4.7]dodec-2-en-3-yl)benzenesulfonamide] | 70.1 ± 11.2 µM | 95.5 ± 14.3 µM | 79 ± 36 µM | 135 to 136 °C | 61 ± 21 µM | 
14 | O=S(=O)(NC1=NOC2(CCCCCCC2)C1)c1ccc2c(c1)OCCO2 [Compound 5f, N-(1-Oxa-2-azaspiro[4.7]dodec-2-en-3-yl)-2,3-dihydrobenzo[b][1,4]dioxine-6-sulfonamide] | 23.6 ± 4.5 µM | 42 ± 8.6 µM | 64.1 ± 8 µM | 192 to 194 °C | 119 µM | 
15 | CC(=O)Nc1ccc(S(=O)(=O)NC2=NOC3(CCCCCCC3)C2)cc1 [Compound 5g, N-(4-(N-1-Oxa-2-azaspiro[4.7]dodec-2-en-3-ylsulfamoyl)phenyl)acetamide] | 41.3 ± 17 µM |  | 54.5 ± 15 µM | 171 to 173 °C (dec.) | 54 ± 14 µM | IC50 (Hek293t): 30.4 ± 14.5 µM; IC50 [9]: 17.7 to 58.8 µM
16 | O=S(=O)(NC1=NOC2(CCCCCCC2)C1)c1ccc(F)cc1F [Compound 5h, 2,4-Difluoro-N-(1-oxa-2-azaspiro[4.7]dodec-2-en-3-yl)benzenesulfonamide] | 97.1 ± 34 µM |  | 94.7 ± 15.5 µM | 118 to 119 °C | 77.1 ± 10.2 µM | IC50 (Hek293t): 60 ± 17 µM
17 | O=[N+]([O-])c1ccccc1S(=O)(=O)NC1=NOC2(CCCCCCC2)C1 [Compound 5i, 2-Nitro-N-(1-oxa-2-azaspiro[4.7]dodec-2-en-3-yl)benzenesulfonamide] |  |  |  | 164 to 165 °C |  | 
18 | O=S(=O)(NC1=NOC2(CCCCCCC2)C1)c1ccc2ccccc2c1 [Compound 5j, N-(1-Oxa-2-azaspiro[4.7]dodec-2-en-3-yl)naphthalene-2-sulfonamide] | 19 ± 3 µM |  | 26.8 ± 3.5 µM | 143 to 145 °C | 27.5 ± 4.2 µM | IC50 (Hek293t): 23.1 ± 6.5 µM; IC50 [9]: 17.7 to 58.8 µM
19 | O=S(=O)(NC1=NOC2(CCCCCCC2)C1)c1cccs1 [Compound 5k, N -(1-Oxa-2-azaspiro[4.7]dodec-2-en-3-yl)thiophene-2-sulfonamide] | 131 ± 80 µM |  | > 150 µM | 149 to 151 °C | 111 ± 20 µM | IC50 (Hek293t): 65.5 ± 13.5 µM
20 | O=S(=O)(NC1=NOC2(CCCCCCC2)C1)c1cccnc1 [Compound 5l, N -(1-Oxa-2-azaspiro[4.7]dodec-2-en-3-yl)pyridine-3-sulfonamide] | 133 ± 68 µM |  | > 150 µM | 145 to 146 °C | > 150 µM | IC50 (Hek293t): > 500 µM
21 | CC(N)C12CC3CC(CC(C3)C1)C2 (stereo not drawn) [Rimantadine, reference compound] |  |  |  |  |  | CC50 (in vitro): 406 ± 26 µM
22 | CN[C@H](CC(C)C)C(=O)N[C@H]1C(=O)N[C@@H](CC(N)=O)C(=O)N[C@H]2C(=O)N[C@H]3C(=O)N[C@H](C(=O)N[C@H](C(=O)O)c4cc(O)cc(O)c4-c4cc3ccc4O)[C@H](O)c3ccc(c(Cl)c3)Oc3cc2cc(c3O[C@@H]2O[C@H](CO)[C@@H](O)[C@H](O)[C@H]2O[C@H]2C[C@](C)(N)[C@H](O)[C@H](C)O2)Oc2ccc(cc2Cl)[C@H]1O [Vancomycin, reference compound] |  |  |  |  |  | MIK (St. aureus [6]): 0.5 to 2 µg/mL; MIK (B. subtilis [8]): 0.25 to 1 µg/mL

Source: article PMC9182378, “Bicyclic Isoxazoline Derivatives: Synthesis and Evaluation of Biological Activity” (Molecules, 2022)
